A value given as a limit tells only on which side of the number the result lay.

As for `COc1cc2c(c3c1OC(C)(C)C3)C(c1cccc(NC(=O)CS(C)=O)c1)=NC(C)(C)C2` (stereo not given), the melting point – broadly, the temperature of the solid-liquid transition – was 198 to 201 °C.
As for `O=C(O)COc1ccc(CN2C(=O)C3(COc4cc5c(cc43)CCO5)c3ccccc32)cc1` (stereo not given), the figure is 265 to 266 °C; as for `Cc1ccn2c(-c3ccnc(-c4ccc(OCCN5CCCC5)cc4)c3)c(-c3cccc(C)n3)nc2c1`, 163 °C.
On to `CC1(C)OCC(CNc2c([N+](=O)[O-])cnc3cc(OCc4ccccc4)ccc23)O1` (stereo not given), for which the melting point fell in the range of 154 to 155 °C.
As for `CN1CC(N2CCc3ccccc3C2)ON=C1CC(c1ccccc1)c1ccccc1` (stereo not given), the figure is 163 °C; as for `CCC(CC)N(O)C(=O)Nc1ccc(-c2ccccc2)cc1`, 183 to 184 °C; as for `CN(C)C=Cc1ncc([N+](=O)[O-])n1CCOC(=O)c1ccccc1`, 153 to 154 °C.
The figure for `Cc1cc(C)c2c(c1C)OC(=O)C2c1ccc(C(C)C)cc1` (stereo not given) is 107 to 108 °C; for `O=C(O)c1ccc(-c2nn(Cc3ccccc3)c3ccccc23)cc1` it is 205 to 207 °C.
The figure for `O=C(c1nc(-c2ccccc2)nc2ccccc12)N1CCCCCC1` is 140 °C.
`c1ccc2c(C3CNCCNCCNCCNCCN3)cccc2c1` (stereo not given) showed a melting point of 87 to 88 °C.
Turning to `COC(=O)C(=CNc1cc(-c2cccc(Cl)c2)sc1C(=O)O)SC`, the melting point lay within 84 to 86 °C.
As for `CCOC(=O)C1=C(C)Nc2ccnc(OC(C)C)c2C1c1ccccc1` (stereo not given), the figure is 136 to 137 °C; as for `CCCN(CCC)c1ccc(Cl)nn1`, 49 to 51 °C; as for `COc1cccc(CC(=S)SCC(=O)O)c1`, 93 to 95 °C.
The figure for `O=C(NCCCCOc1ccc(-n2ccnc2)cc1)c1ccc(Br)cc1` is 140 to 141 °C.
`C[C@H](c1ccccc1)n1c(=O)c2c(N3CCNCC3)cc(Cl)cc2n(Cc2ccccc2)c1=O`: the melting point is 91 to 96 °C.
For the compound `CN(Cc1cc2c(=O)c(C(=O)NCc3ccc(Cl)cc3)cn(C)c2o1)CC(O)c1cccs1` (stereo not given), the melting point is 145 to 147 °C.
As for `CCOC(=O)C(Cc1ccccc1)NC(=O)COc1ccc(C2=NNC(=O)NC2)cc1` (stereo not given), the figure is 148 to 150 °C; as for `CCOC(=O)c1cccc(-c2coc3c(C)c(O)ccc3c2=O)c1`, 222 °C; as for `CCCCc1oc2ccccc2c1-c1ncc(-c2ccc3cc(OCC(=O)O)ccc3c2)o1`, 214 to 216 °C.
In turn, `CCc1c(C)c2c(OC)cc(-c3ccc(C(C)C)cc3)cc2oc1=O` returned a melting point of 115 °C.
`CC(=Cc1ccc(C)cc1)COc1cc(C)c(NC=O)c(C)c1C`: the melting point was in the range of 167 to 169 °C.
As for `Cc1cc(=O)c(C(=O)Oc2ccccc2)nn1-c1ccc(Cl)cc1`, the figure is 140 to 146 °C.
The figure for `CC(C)c1oc(-c2ccccc2)nc1CC(=O)O` is 141 to 143 °C; for `Nn1c(C(F)(F)F)cc(-c2ccc(C(F)(F)F)cc2)cc1=S` it is 156 °C; for `CC(C)(C)c1ccc(C(=O)n2c3cc(O)c(O)cc3c3ccc(O)c(O)c32)cc1` it is 234 to 236 °C.
The compound `CC1(C)CCc2c(N3CCOCC3)nc3sc4c(NCc5cccnc5)ncnc4c3c2C1` had a melting point of 249 °C.
`CC(C(=O)O)c1ccc2nc(-c3ccc(Cl)cc3)oc2c1` (stereo not given) had a melting point of 188 to 191 °C.
The compound `O=C(Oc1ccc2c(c1)OC=C(C(=O)N1CCN(C(c3ccc(F)cc3)c3ccc(F)cc3)CC1)O2)c1cccnc1` showed a melting point of 142 °C.
Consider `CC(=O)NCC1CC1c1ccc(F)c2nn(C)cc12` (stereo not given), for which the melting point was 147 to 148 °C.
The figure for `CC(C)(C)c1ccc(C(O)CCCN2CCC(=C3c4ccccc4COc4ccccc43)CC2)cc1` (stereo not given) is 160 to 161 °C; for `O=C(O)c1ccc(COc2cccc(-c3c(-c4ccccc4)cnc4c(C(F)(F)F)cccc34)c2)cc1` it is 108 to 112 °C.
As for `Cc1oc(-c2ccc3ccccc3c2)nc1COc1ccc(CCCC2OCCO2)cc1`, the figure is 141 to 142 °C; as for `COC(=O)N1Cc2ccccc2C(c2ccccc2Cl)c2ccccc21` (stereo not given), 159 to 161 °C; as for `Cc1cccc(C(=O)Cc2ccnc(-c3ccc(OCC(N)=O)cc3)c2)n1`, 144 to 146 °C.
`Cc1cc(CNC(=O)c2ccnc(-n3cnn(Cc4ccc(F)c(F)c4)c3=O)c2)no1` gave a melting point of 160 to 161 °C.
As for `Cn1nnc2ccc3nc(O)c(O)nc3c21`, the melting point is > 300 °C.
As for `C=CC(=O)OCCCCCCOc1ccc(C(=O)OCCOCC2(c3ccccc3)C=CC=CC2C=Cc2ccc(OCCCCCC)cc2)cc1` (stereo not given), the figure is 87 °C; as for `CCCc1ccc(C(O)(c2c(C)cc(C)c(C)c2OC)C(C)C)cc1` (stereo not given), 59 to 60 °C.
Take `CCCCCCCCc1ccc(OCC(=O)Cn2ccc3ccccc32)cc1`: the melting point is 65 °C.
The figure for `Cc1ccc(-c2ccc3c(c2)C=C(C(CN(C)C2CCOCC2)Oc2ccccc2)CCO3)cc1` (stereo not given) is 135 to 136 °C.
For `N#CC1CN1C(=O)NC(=O)c1ccc2ccccc2c1` (stereo not given), the melting point was in the range of 164 to 166 °C.
As for `O=C(NCCN1CCCC1)c1ccc(-c2cnc3c(c2)N(Cc2c(Cl)cccc2Cl)C(=O)CN3)cc1`, the figure is > 200 °C; as for `COC(=O)c1ccc(OC)cc1Oc1cc(Cl)ccc1[N+](=O)[O-]`, 121 to 123 °C; as for `COC(=O)c1snc(-c2ccc(Cl)c(Cl)c2)c1C(=O)OC`, 105 to 107 °C.
Compound `CCc1ccc(N)c(CS(=O)c2nc3ccccc3[nH]2)c1` (stereo not given) came in with a melting point of 155 to 156 °C.
`NC(=O)c1nnn(Cc2ccc(Cl)c(C(Cl)=C(Cl)Cl)c2)c1N` gave a melting point of 174 to 175 °C.
`CS(=O)(=O)N1CCN([C@@H](CNCS(=O)(=O)c2ccc(OCc3ccccc3)cc2)C(=O)NO)CC1` returned a melting point of 110 °C.
As to `O=C(NCCCCn1ccnc1)Nc1ccccc1Cl`, the melting point lay within 87 to 88 °C.
The figure for `CC(Cc1n[nH]c(=O)c2ccccc12)c1cccnc1` (stereo not given) is 142 °C; for `COc1cc2cc3c(=O)c(C#N)c[nH]c3nc2cc1OC` it is > 300 °C; for `CC(=O)NCc1c(O)cc2c3c(cccc13)C(=O)N(O)C2=O` it is 268 to 272 °C.
As for `CC(C)COC(=O)CCC1NCC(=O)N1` (stereo not given), the figure is 50 to 52 °C; as for `CCN(CC)c1nc(Cl)nc2c(SC)ncnc12`, 90 to 91 °C; as for `C(=C\c1nc(COc2ccc(CCCCCn3cncn3)cc2)co1)/c1ccccc1`, 103 to 104 °C.
As for `CCCCc1nn(-c2cc(NC(=O)CC)ccc2Cl)c(=O)n1Cc1ccc(-c2ccccc2S(=O)(=O)NC(=O)c2occ(Cl)c2Cl)cc1`, the figure is 223 to 226 °C.
The compound `CC(C)(C)C(=O)OCN1C(=O)NC2(C1=O)C(=O)N(Cc1ccc(Br)cc1F)c1ccccc12` (stereo not given) gave a melting point of 220 to 222 °C.
Turning to `COC(=O)c1nc(-c2ccc([Si](C)(C)C)cc2F)c(F)c(N)c1OC`, the melting point lay within 127 to 129 °C.
The compound `CCc1cccc(C)c1CNc1nc(C(=O)O)cn2c(C)c(C)nc12` had a melting point of 230 °C.
On to `OCCCCc1n[nH]c2ccc(C(F)(F)F)cc12`, for which the melting point lay within 74 to 76 °C.
Compound `Cc1[nH]c(=O)oc1C(=O)c1ccc(-n2ccnc2)cc1` had a melting point of 320 °C.
`Cc1ccc(S(=O)(=O)N(CCBr)c2ccc(Cl)cc2[N+](=O)[O-])cc1` yielded a melting point of 70 to 72 °C.
Compound `NC(=O)N1C(=O)C(=C(OCC(=O)C2COCOC2)c2cccs2)c2cc(F)c(Cl)cc21` displayed a melting point of 199 to 200 °C.
`CCOC(=O)CO/N=C(\C(=O)Sc1nc2ccccc2s1)c1cc[nH]n1` displayed a melting point of 112 to 114 °C.
Turning to `CC(C)(O)CC12C=CC=CC1C(=O)NC2=O` (stereo not given), the melting point is 104 to 105 °C.
As for `Cn1nnnc1CC(O)(c1ccc(F)cc1)c1ccc(F)cc1`, the figure is 116 to 118 °C.
As for `FC(F)(F)c1nnc2sc3ccccc3n12`, the figure is 140 to 141 °C.
As for `O=C(Cc1ccc(-c2ccc(C(CC3CCOCC3)c3ccc(S(=O)(=O)C4CC4)cc3)[nH]2)nc1)N1CCC1` (stereo not given), the figure is 94 to 98 °C; as for `Nc1ccsc1C(=O)NCC1CCN(CC2COc3ccccc3O2)CC1` (stereo not given), 144 to 146 °C.
As to `CC(=O)c1ccc2c(c1)C1(c3cc(C(C)=O)ccc3-2)c2cc(C(C)=O)ccc2-c2ccc(C(C)=O)cc21`, the melting point was > 300 °C.
The figure for `O=C(Cc1ccccc1)NC1CN(C(C(=O)O)c2ccc(O)cc2)C1=O` (stereo not given) is 134 to 141 °C.
The figure for `COc1cc2c3c(nc4ccc(Cl)cc4c3c1)-c1ccccc1N2` is 205 to 207 °C; for `Cc1ccc(N2N=C3c4cc(C(=O)CCl)sc4CCC3CC2=O)cc1` (stereo not given) it is 169 to 171 °C.
As for `CC1CCN(C(=O)[C@H](CCCCNc2ccccn2)NS(=O)(=O)c2ccc3ccccc3c2)CC1`, the figure is 127 to 129 °C; as for `Cc1ccc(C(=O)CCc2ccc(N)cc2)cc1`, 59 to 61 °C; as for `CN(C(=O)Nc1ccc(Cl)c(Cl)c1)S(C)(=O)=O`, 140 °C.
`COc1cc(OC)nc(Oc2cccc(C(F)(F)F)c2C(=O)O)n1` registered a melting point of 151 to 153 °C.
The figure for `CC(C)c1noc(-c2ncn3c2nc(N2CCOCC2)c2cc(F)ccc23)n1` is 262 to 264 °C; for `O=C(CCl)c1ccc(-c2ccc(S(=O)(=O)C(F)F)cc2)cc1` it is 157 to 159 °C; for `CC(C)CC(NC(=O)c1ccccc1)C(=O)NC(CCCN(C(=N)NC(=O)OCc1ccccc1)C(=O)OCc1ccccc1)C(=O)Oc1cccc2ccccc12` (stereo not given) it is 178 to 187 °C.
Consider `CS(=O)(=O)Oc1cnc2cc(OC(F)(F)F)ccc2c1O`, for which the melting point is 125 to 127 °C.
Compound `Cc1cc(C)cc(Sc2c(C(C)C)nc(C=NO)n2C)c1` displayed a melting point of 240 to 241 °C.
With `CCCCc1c(C(=O)N(C)Cc2ccc3c(Br)c(O)ccc3c2)oc2ccccc12`, the melting point lay within 53 to 56 °C.
As for `COC(=O)c1cccc2nc(N3CCCCC3)n(Cc3ccc(-c4ccccc4-c4nnn[nH]4)cc3)c12`, the figure is 146 to 150 °C.

(Values after a melting point compilation (Tetko et al.; mined from patent text by program, amines drawn as free bases though some values may be those of a salt).)
